Data on 18 compounds can be found in patent publication US9150546B2, “Triazine derivative and pharmaceutical composition comprising the same” (SHIONOGI & CO., LTD., priority 2009, dated 2015).

This assay has as its target human P2X3 receptor (Homo sapiens (Human), UniProt P56373). Briefly: P2X3 receptor inhibition, ATP-evoked Fluo-3 fluorescence (FDSS 3000). Particulars: C6BU-1 cell transfected with human P2X3 receptor gene. It is filed as cell-based.

Chain of human P2X3 receptor (P56373 whole entry): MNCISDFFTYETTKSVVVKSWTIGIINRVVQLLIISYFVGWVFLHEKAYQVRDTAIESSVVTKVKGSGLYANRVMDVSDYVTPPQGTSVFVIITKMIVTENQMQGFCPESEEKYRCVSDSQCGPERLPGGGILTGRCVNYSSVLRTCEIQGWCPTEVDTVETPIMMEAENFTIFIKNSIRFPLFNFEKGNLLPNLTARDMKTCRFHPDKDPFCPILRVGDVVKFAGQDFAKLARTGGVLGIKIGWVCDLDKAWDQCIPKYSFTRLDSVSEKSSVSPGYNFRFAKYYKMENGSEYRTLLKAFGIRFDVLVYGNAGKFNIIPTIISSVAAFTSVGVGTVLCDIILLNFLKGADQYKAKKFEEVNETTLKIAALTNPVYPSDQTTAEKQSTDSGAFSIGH

For `CCn1c(=O)nc(Nc2ccc(Oc3ccccc3)cc2)n(Cc2ccc(F)cc2)c1=O` [I-141], half-maximal inhibition (IC50) required 0.685 µM.

In the case of `Cc1ccc(Cn2c(=O)n(CC(=O)N[C@@H](C)C(=O)O)c(=O)[nH]/c2=N\c2ccc(OC(C)C)c(F)c2)cc1` [I-418], half-maximal inhibition (IC50) required 0.2 µM.

`COC(=O)C(C)(C)Cn1c(=O)[nH]/c(=N\c2ccc(OC)c(C)c2)n(Cc2ccc(Cl)cc2)c1=O` [I-442] displayed an IC50 of 0.117 µM.

Compound `COC(=O)C(C)(C)Cn1c(=O)[nH]/c(=N\c2cccc(C(F)(F)F)c2)n(Cc2ccc(Cl)cc2)c1=O` [I-471] had an IC50 of 0.024 µM.

The compound `COC(=O)Cn1c(=O)[nH]/c(=N\c2ccc(OC(C)C)c(F)c2)n(Cc2ccc(C)cc2)c1=O` [I-410] registered an IC50 of 0.044 µM.

Take `CSc1ccc(/N=c2\[nH]c(=O)n(CC(C)(C)C(=O)O)c(=O)n2Cc2ccc(Cl)cc2)cc1` [I-544]: the IC50 came to 0.601 µM.

`CC(C)Oc1ccc(/N=c2\[nH]c(=O)n(CCC(C)(C)C(=O)OCc3ccccc3)c(=O)n2Cc2ccc(Cl)cc2)cc1F` [I-406] returned an IC50 of 0.03 µM.

For `O=c1nc(Nc2ccc(Oc3ccccc3)cc2)n(Cc2ccc(Cl)cc2)c(=O)n1CCO` [I-334], the IC50 was 0.099 µM.

`COC(=O)C(C)(C)Cn1c(=O)[nH]/c(=N\c2ccc(OC(C)C)nc2)n(Cc2ccc(Cl)cc2)c1=O` [I-473]: half-maximal inhibition (IC50) was put at 0.583 µM.

In turn, `CCOC(=O)CCCn1c(=O)[nH]/c(=N\c2ccc(OC(C)C)c(C)c2)n(Cc2ccc(Cl)cc2)c1=O` [I-502] came in with an IC50 of 0.02 µM.

Compound `CC(C)Oc1ccc(/N=c2\[nH]c(=O)n(Cc3ccc(C(=O)O)cc3)c(=O)n2Cc2ccc(Cl)cc2)cc1F` [I-445] gave an IC50 of 0.008 µM.

Regarding `CC(C)Oc1ccc(/N=c2\[nH]c(=O)n(C[C@H](C)C(=O)O)c(=O)n2CC2CCCCC2)cc1Cl` [I-552], the IC50 was 0.023 µM.

In turn, `CC(C)Oc1ccc(/N=c2\[nH]c(=O)n(C[C@@H](C)C(=O)O)c(=O)n2Cc2ccc(Cl)cc2)cc1F` [I-455] registered an IC50 of 0.03 µM.

`COC(=O)C[C@H](C)n1c(=O)[nH]/c(=N\c2ccc(OC(C)C)c(C)c2)n(Cc2ccc(Cl)cc2)c1=O` [I-524] had an IC50 of 0.06 µM.

For the compound `COC(=O)[C@H](C)Cn1c(=O)[nH]/c(=N\c2ccc3oc(C)cc3c2)n(Cc2ccc(Cl)cc2)c1=O` [I-558], half-maximal inhibition (IC50) was put at 0.005 µM.

Compound `COc1ccc(Nc2nc(=O)n(CCO)c(=O)n2Cc2ccc(Cl)cc2)cc1F` [I-305] gave an IC50 of 0.946 µM.

`Cc1ccc(Cn2c(=O)n(CCCC(=O)O)c(=O)[nH]/c2=N\c2ccc(OC(C)C)c(Cl)c2)cc1` [I-519] showed an IC50 of 0.012 µM.

For `CC(C)(Cn1c(=O)[nH]/c(=N\c2cccc(Cl)c2)n(Cc2ccc(Cl)cc2)c1=O)C(=O)O` [I-468], half-maximal inhibition (IC50) required 0.137 µM.
